Measured values: patent US20140341916A1, “THERAPEUTIC COMBINATIONS AND METHODS OF TREATING MELANOMA” (Genentech, Inc., priority 2011, published 2014)

Legend:
ETBR surface protein = assay: Surface ETBR protein in live melanoma cells, FACS; assay type: cell-based, human; conditions: 24 h
Procedure: (§1) Melanoma cell lines UACC-257X2.2, A2058, COLO 829, IPC-298 (ATCC) were treated with a BRAF inhibitor drug (“BRAFi”), specifically RG7204 at varying concentrations by adding the appropriate drug volume to cells in culture for 24 h on four-well dishes.
(§2) To determine whether the observed increases in total ETBR protein level due to BRAFi treatment also results in an increase of ETBR surface protein levels, a fluorescence-activated cell sorting (FACS) analysis was performed. Cells were harvested in PBS with 2.5 mmol/L EDTA and washed in PBS buffer containing 1% FBS. All subsequent steps were carried out at 4° C. Cells were incubated for 1 hour with 3 μg/mL anti ETBR antibody Hu5E9v1, followed by anti-human IgG fluorescent detection reagent (A11013; Invitrogen). Cells were then analyzed with a FACS Calibur flow cytometer (BD Biosciences). The results for UACC-257X2.2 are shown in FIG. 4C, the results for A2058 are shown in FIG. 8C, and the results for COLO 829 are shown in FIG. 6C.
(§3) Melanoma cell lines A2058, COLO 829, SK23-MEL and IPC-298 (ATCC) were treated with a MEK inhibitor drug (“MEKi-973” or “MEKi-623”), at varying concentrations (0 μM, 0.01 μM, 0.1 μM or 1 μM) by adding the appropriate drug volume to cells in culture for 24 h on four-well dishes.
as §2, with “MEKi” for “BRAFi”, “performed as described above.” for “performed.”, “Biosciences).” for “Biosciences). The results for UACC-257X2.2 are shown in FIG. 4C, the results for A2058 are shown in FIG. 8C, and the results for COLO 829 are shown in FIG. 6C.”

ETBR transcript [1] = assay: ETBR transcript level in melanoma cell lines, Taqman, normalized to RPL19; assay type: cell-based, human; conditions: A2058 cells, 24 h
Procedure: as §1
(§4) To determine the effect of BRAFi on ETBR and control ribosomal protein L19 (RPL19) transcript levels, the following experiments were performed. Cells treated with RG7204 for 24 h were harvested from plates by scraping and processed for total RNA using Qiashredder and RNeasy mini kits (79654, 74104 from Qiagen, Valencia, Calif.). Taqman assays were set up using reagents from Applied Biosystems (ABI, Foster City, Calif.) and assayed using 7500 Real Time PCR machine and software from ABI. Primer-probe sets were designed with primers flanking a fluorogenic probe dual labeled with Reporter dye FAM and quencher dye TAMRA.
as §3
as §4, with “MEKi” for “BRAFi”, “ETBR” for “ETBR and control ribosomal protein L19 (RPL19)”, “performed as described above in Example 3.” for “performed.”, “either MEKi-973” for “RG7204”

ETBR transcript [2] = assay: PD study, ETBR transcript in A2058 tumors, Taqman, normalized to Hprt1; assay type: in vivo, mice; conditions: MEKi-973 5 mpk and 10 mpk orally once a day for 3 days
Procedure: A2058 or COLO 829 tumors were grown to an average size of approximately 200 mm^3, whereupon animals were randomized into groups of 5-6 each. For the BRAFi PD study, an appropriate vehicle control (Klucel LF) or RG7204 at doses of 10 mpk or 30 mpk were administered twice a day for 3 days (FIG. 27A). For the MEKi PD study, an appropriate vehicle control or MEKi-973 at doses of 5 mpk and 10 mpk were administered orally once a day for 3 days (FIG. 27B). Flash frozen tumors harvested at end of study were homogenized and processed for RNA and/or protein. Taqman assays were set up using reagents from Applied Biosystems (ABI, Foster City, Calif.) and assayed using 7500 Real Time PCR machine and software from ABI. Primer-probe sets were designed with primers flanking a fluorogenic probe dual labeled with Reporter dye FAM and quencher dye TAMRA. ETBR transcript levels in the tumors were normalized against transcript levels of reference genes such as Hprt1 (hypoxanthine phosphoribosyltransferase 1) or GAPDH (glyceraldehyde 3 phosphate dehydrogenase) using primer and probe sets that were specific to the human homologs of these genes.

ETBR total protein = ETBR total protein in melanoma cell lines, Western blot; assay type: cell-based, human; conditions: 24 h
Procedure: as §1
To test whether the increase in ETBR transcripts due to BRAFi treatment also results in any changes in ETBR total protein levels, Western blot experiments were performed on the same cell lines treated with BRAFi RG7204 as described above. For Western blotting, the following reagents were used: for detection of proteins: an anti-ETBR in-house generated monoclonal antibody 1H1.8.5, anti-Phospho-p44/42 MAPK (Erk1/2) (Thr202/Tyr204) antibody (9101, Cell Signaling Technology), anti-p44/42 MAPK (Erk1/2) antibody (9102, Cell Signaling Technology) and as controls, a rabbit polyclonal anti-GAPDH (glyceraldehyde-3-phosphate dehydrogenase) antibody (PA1-987; Affinity Bioreagents) and mouse monoclonal anti-β-Tubulin antibody (556321, BD Pharmingen). The results for UACC-257X2.2 are shown in FIG. 4B, the results for A2058 are shown in FIG. 8B, the results for COLO 829 are shown in FIG. 6B and the results for IPC-298 are shown in FIG. 10.
as §3
To test whether the increase in ETBR transcripts due to MEKi treatment also results in any changes in ETBR total protein levels, Western blot experiments were performed on cell lines COLO829 (BRAF^V600E), A2058 (BRAF^V600E), SK23-MEL (BRAF^WT/RAS^WT), or IPC-298 (BRAF^WT/RAS^[…]) which were treated with MEKi-973 as described above. For Western blotting, the following reagents were used: for detection of proteins: an anti-ETBR in-house generated monoclonal antibody 1H1.8.5, anti-Phospho-p44/42 MAPK (Erk1/2) (Thr202/Tyr204) antibody (9101, Cell Signaling Technology), anti-p44/42 MAPK (Erk1/2) antibody (9102, Cell Signaling Technology) and as controls, a rabbit polyclonal anti-GAPDH (glyceraldehyde-3-phosphate dehydrogenase) antibody (PA1-987; Affinity Bioreagents) and mouse monoclonal anti-β-Tubulin antibody (556321, BD Pharmingen). The results for A2058 are shown in FIG. 15A treated with MEKi-623 and 15B treated with MEKi-973, the results for COLO 829 are shown in FIG. 12A treated with MEKi-623 and 12B treated with MEKi-973, the results for SK23-MEL are shown in FIG. 19A treated with MEKi-623 and 19B treated with MEKi-973, and the results for IPC-298 are shown in FIG. 22A treated with MEKi-623 and 22B treated with MEKi-973.

SMILES: O=C(c1ccc(F)c(F)c1Nc1ccc(I)cc1F)N1CC(O)([C@@H]2CCCCN2)C1 [MEKi-973, (S)-(3,4-difluoro-2-((2-fluoro-4-iodophenyl)amino)phenyl)(3-hydroxy-3-(piperidin-2yl)azetidin-1-yl)methanone]
- surface level of ETBR protein vs untreated control cells (ETBR surface protein; A2058 cells): appears to increase the surface levels of ETBR protein
- surface level of ETBR protein vs untreated control cells (ETBR surface protein; COLO 829 cells): appears to increase the surface levels of ETBR protein
- surface level of ETBR protein vs untreated control cells (ETBR surface protein; IPC-298 cells): appears to increase the surface levels of ETBR protein
- surface level of ETBR protein vs untreated control cells (ETBR surface protein; SK23-MEL cells): appears to increase the surface levels of ETBR protein
- ETBR transcript vs untreated control cells (ETBR transcript [1]): appears to increase the ETBR transcripts
- ETBR mRNA in tumors vs control vehicle (ETBR transcript [2]): induces ETBR mRNA in vivo
- ETBR total protein level vs untreated control cells (ETBR total protein; A2058 cells (BRAF V600E)): appears to increase the ETBR total protein levels
- ETBR total protein level vs untreated control cells (ETBR total protein; COLO 829 cells (BRAF V600E)): appears to increase the ETBR total protein levels
- ETBR total protein level vs untreated control cells (ETBR total protein; IPC-298 cells (BRAF wild-type, RAS mutant)): appears to increase the ETBR total protein levels
- ETBR total protein level vs untreated control cells (ETBR total protein; SK23-MEL cells (BRAF WT/RAS WT)): appears to increase the ETBR total protein levels
